Measurements reported in patent US20110105417A1, “Drug Conjugates” (The Curators of the University of Missouri, priority 2008, published 2011).

What was measured:
MDCK-WT cells = assay: Non-radioactive uptake study of B-10HD-ACV on MDCK-WT cells; type: in vitro ADME, dog; conditions: 200 μM; for Average uptake: DPBS pH 5.4, 90 minutes; for Relative fold uptake: relative to acyclovir
Protocol: Non-radioactive uptake studies were performed for the above prodrugs on MDCK-WT cells after growing them for 7 days. The medium was aspirated and the cells were washed 3 times after an interval of 5 minutes each with DPBS pH 5.4. […] Uptake was carried out for 90 minutes. Uptake was terminated using ice cold DPBS pH 5.4. The cells were then washed 2 times using distilled deionized water and lysed overnight at −80° C. with 500 uL of distilled deionized water in each well. The samples were analyzed using LC-MS/MS.

Caco-2 cells monolayer = assay: Non-radioactive cellular uptake study, Caco-2; conditions: 90 minutes (FIG. 4)
[1] = system: MDCK-MDR1 cell monolayers
Protocol: The medium was changed everyday after reaching confluence.
The experiments were carried out for 90 minutes.

MDCK-MDR1 cell monolayer = assay: Non-radioactive cellular uptake study, MDCK-MDR1; conditions: pH 5.5, 90 minutes (FIG. 2)

| SMILES | Average uptake (MDCK-WT cells) [pmoles/mg protein/min] | Relative fold uptake (MDCK-WT cells) | increase of uptake compared to ACV (Caco-2 cells monolayer) [times] | increase of uptake compared to ACV (MDCK-MDR1 cell monolayer) | further results |
| --- | --- | --- | --- | --- | --- |
| Nc1nc2c(ncn2COCCOC(=O)CCCCCCCCCO)c(=O)[nH]1 [10HD-ACV, 2-((2-amino-6-oxo-1,6-dihydropurin-9-yl)methoxy)ethyl 10-hydroxy decanoate] | 199.74 | 43.73 |  |  |  |
| Nc1nc2c(ncn2COCCO)c(=O)[nH]1 [ACV, 9-(2-hydroxyethoxymethyl)guanine, reference compound] | 4.56 | 1 |  |  |  |
| CCCCCCC(CCCCCCCCCCC(=O)OCCOCn1cnc2c(=O)[nH]c(N)nc21)OC(=O)CCCC[C@@H]1SC[C@@H]2NC(=O)N[C@@H]21 (stereo partly drawn) [B-12HS-ACV, Biotin-12-Hydroxystearicacid-ACV] |  |  | 8.3 |  |  |
| Nc1nc2c(ncn2COCCOC(=O)CCCC[C@@H]2SC[C@@H]3NC(=O)N[C@@H]32)c(=O)[nH]1 [B-ACV, Biotin-ACV] |  |  |  |  | uptake in the presence of biotin versus in its absence [1]: significantly lesser |
| CCCCCC[C@H](C/C=C\CCCCCCCC(=O)OCCOCn1cnc2c(=O)[nH]c(N)nc21)OC(=O)CCCC[C@@H]1SC[C@@H]2NC(=O)N[C@@H]21 [B-R-ACV, Biotin-Ricinoleic acid-Acyclovir] |  |  |  | 9.5 times |  |
| CCCCCC[C@@H](O)C/C=C\CCCCCCCC(=O)OCCOCn1cnc2c(=O)[nH]c(N)nc21 [R-ACV, Ricinoleicacid-ACV] |  |  | 1.4 | four |  |
